Test results from patent publication US8642545B2, “Erythropoietin mimetic peptide derivative and its pharmaceutical salts, the preparation and uses thereof” (Jiangsu Hansoh Pharmaceutical Co., Ltd, priority 2007, dated 2014).
Where two headings read alike, the source gives them in different places. *1 amine or outer side, *2 acyl side, *3 side chain or, on linkers, in order; H or OH if unused. Bridges are numbered along the chain shown (N, C = ends). Roman numbers before positions name the chains, in order. [ ]: non-standard residue; d: D form. ξ: configuration not given here. X1 = NCCNC(=O)OC(CCC(=O)[*:1])CCC(=O)[*:2]; Nle = CCCC[C@H](N)C(=O)O; ξK = NCCCCC(N)C(=O)O; βAla = NCCC(=O)O

Legend:
erythropoiesis of mice = experiment: Effects of EPO mimetic peptide derivatives on mice, sc injection on three consecutive days, peripheral blood cell and reticulocyte counts; type: in vivo, Kunming mice; settings: for Platelet / White Blood Cell: 4.5 mg/kg
Experimental: The biological activity of EPO, or EPO mimetic peptide derivatives and their pharmaceutical salts provided by this invention can be determined by various assays known in this field. Testing of in vivo activity is performed as follows: mice are subcutaneously injected with EPO and EPO mimetic peptide derivatives and their pharmaceutical salts provided by this invention on three consecutive days. The mice are then sacrificed. The whole blood is taken to carry out peripheral blood cells and reticulocyte count. The blood cell count is performed by automatic blood cell counter. […] The dose of EPO protein as a control drug is 240 μ/kg. The drugs are administered three times per week and the administration continues for six weeks. The blood samples are collected to carry out related hematological index analysis. The purpose of the experiments is to evaluate and compare the effects of EPO mimetic peptide derivatives and the EPO protein on erythropoiesis of mice. […] EPO is purchased from […] Pharmaceutical Co., Ltd. Kunming mice are purchased from the Chinese Academy of Sciences Shanghai Experimental Animal Center, weighing 25 30 g, ♀. The number of animals in each group is 10. Mice are injected subcutaneously with EPO mimetic peptide derivatives and EPO protein for three consecutive days. Then the mice are killed, the whole blood is used to carry out peripheral blood cells and reticulocyte counts. Blood cell count is performed using automatic blood cell counter counts.

[1] = system: erythropoiesis of the macaques; experiment: Effects of EPO mimetic peptide derivatives on macaques, hematological indexes; type: in vivo
Experimental: The biological activity of EPO, or EPO mimetic peptide derivatives and their pharmaceutical salts provided by this invention can be determined by various assays known in this field. Testing of in vivo activity is performed as follows: mice are subcutaneously injected with EPO and EPO mimetic peptide derivatives and their pharmaceutical salts provided by this invention on three consecutive days. The mice are then sacrificed. The whole blood is taken to carry out peripheral blood cells and reticulocyte count. The blood cell count is performed by automatic blood cell counter. Pharmacodynamic studies are carried out by intravenous administration to macaques with a dose of 1.35 mg/kg. The dose of EPO protein as a control drug is 240 μ/kg. The drugs are administered three times per week and the administration continues for six weeks. The blood samples are collected to carry out related hematological index analysis.
The purpose of this experiment is to evaluate the effects of EPO mimetic peptide derivatives on erythropoiesis of the macaques.
EPO mimetic peptide HH-EPO-018 is provided by Jiangsu Hansoh Pharmaceutical co., LTD. EPO is purchased from Shenyang Sansheng Pharmaceutical Co., Ltd. The samples are diluted in a saline containing 0.1% BSA before they are used.
Macaques, weighing 5.5˜8.5 kg, male or female, are purchased from Suzhou Xishan Zhongke Laboratory Animal Center. Macaques are grouped according to the basis of hemoglobin with each group having three macaques. HH-EPO-018 is intravenously injected once at a dose of 1.35 mg/kg; EPO is injected three times per week at a dose of 240 μg/kg. The administration is continued for five weeks. Measure hematological indexes are measured 1˜2 times per week.

[2] = system: EPO binding sites on red blood cells from the spleen; settings: about 400 binding sites, some, cited from earlier work
[3] = system: EPO binding sites on immature red blood cells; settings: cited from earlier work
[4] = current dosage regimen, three consecutive days
[5] = macaques, 240 μg/kg three times per week, five weeks

With “EPO: EPO protein purchased from Shenyang Sansheng Pharmaceutical Co., Ltd.; control drug” the “influence on mature red blood cells, blood cell hematocrit, hemoglobin content (in words)” value (erythropoiesis of mice; [4]) was “no significant influence”, the “mouse peripheral blood reticulocyte count (in words)” value (erythropoiesis of mice; [4]) was “significantly promote the increase” and the “Blood Cell Hematocrit” value (erythropoiesis of mice; mouse, 5 μg/kg, d1-3) was 46.2 ± 2.7%. The “Red Blood Cell Count” value (erythropoiesis of mice; mouse, 5 μg/kg, d1-3, x ± SD) was 9.0 ± 0.6 ×10^6/μL, the “Reticulocyte Count” value (erythropoiesis of mice; mouse, 5 μg/kg, d1-3, x ± SD) was 483.9 ± 146.5 ×10^9/L and the “influence on the peripheral white blood cell count (in words)” value (erythropoiesis of mice; mouse, in vivo) was “no significant influence”. For the same substance, the “stimulation on macaque hemoglobin generation, HH-EPO-018 compared with EPO (in words)” value ([1]; according to the current dosing regimens) was “similar”, the “blood cell hematocrit (in words)” value [1, 5] was “increases” and the “peripheral blood hemoglobin content (in words)” value [1, 5] was “increases”. For the same substance, the Kd ([2]; "high Kd") was 100 pM, the Kd ([2]; "low Kd") was 800 pM and the Kd ([3]; about 300 binding sites of about 800 to 1000 per cell membrane) was 90 pM. For the same substance, the Kd ([3]; remaining binding sites, weak binding) was about 570 pM.
In the case of “I: Ac-GGTYSCHFGALTWVCRPQRG[βAla][ξK]-NH2 / II: Ac-GGTYSCHFGALTWVCRPQRG[βAla][ξK]-NH2 (disulfide I:6-I:15, II:6-II:15; linker I:22-II:22 via X1) [HH-EPO-008]”, the Platelet (erythropoiesis of mice; mouse, d1-3) is reported as 1685.5 ± 351.3 ×10^3/μL and the “White Blood Cell” value (erythropoiesis of mice; mouse, d1-3) is reported as 2.9 ± 0.5 ×10^3/μL.
In the case of “I: Ac-GGTYSCHFGPLTWVCRPQRG[βAla][ξK]-NH2 / II: Ac-GGTYSCHFGPLTWVCRPQRG[βAla][ξK]-NH2 (disulfide I:6-I:15, II:6-II:15; linker I:22-II:22 via X1) [HH-EPO-005]”, the Platelet (erythropoiesis of mice; mouse, d1-3) is reported as 1957.8 ± 349.5 ×10^3/μL and the “White Blood Cell” value (erythropoiesis of mice; mouse, d1-3) is reported as 4.2 ± 1.2 ×10^3/μL.
With “I: Ac-GGTYSCHFGSLTWVCRPQRG[βAla][ξK]-NH2 / II: Ac-GGTYSCHFGSLTWVCRPQRG[βAla][ξK]-NH2 (disulfide I:6-I:15, II:6-II:15; linker I:22-II:22 via X1) [HH-EPO-007]” the Platelet (erythropoiesis of mice; mouse, d1-3) was 2082.1 ± 863.9 ×10^3/μL and the “White Blood Cell” value (erythropoiesis of mice; mouse, d1-3) was 3.6 ± 0.8 ×10^3/μL.
In the case of “I: Ac-GGTYSC[Nle]FGPLTWVCRPQRG[βAla][ξK]-NH2 / II: Ac-GGTYSC[Nle]FGPLTWVCRPQRG[βAla][ξK]-NH2 (disulfide I:6-I:15, II:6-II:15; linker I:22-II:22 via X1) [HH-EPO-006]”, the Platelet (erythropoiesis of mice; mouse, d1-3) is reported as 1087.8 ± 118.5 ×10^3/μL and the “White Blood Cell” value (erythropoiesis of mice; mouse, d1-3) is reported as 4.1 ± 1.2 ×10^3/μL.
